IC50 and Emax data for 16 molecules are collected here from patent publication US20260091026A1, “METHODS OF TREATING INFLAMMATORY DISEASES” (INTERLINE THERAPEUTICS, INC., priority 2023, published 2026).

In test [1] the test system is THP1-Dual cells, NF-κB pathway (SEAP). Nature of the test: THP-1 Dual cell SEAP assay (L18-MDP stimulated). Type of test: cell-based. The conditions noted are these: Homo sapiens, 10 ng/mL L18-MDP, 20-24 h, SEAP readout, read-out: IFNγ THP1 IC50. The protocol:
THP1-Dual™ cells (InvivoGen Cat #thpd-nfis) allow simultaneous assessment of the NF-κB pathway, by monitoring the activity of secreted embryonic alkaline phosphatase (SEAP) as well as the IRF pathway, by assessing the activity of a secreted luciferase (Lucia). Cells were cultured according to manufacturers' recommendations. For the assay, cell concentration was adjusted to 7.14×10^5 cells/mL in assay media (RPMI 1640, 2 mM L-Glutamine, 25 mM HEPES, 10% fetal bovine serum (heat-inactivated for 30 min at 56° C.), Pen-Strep (100 U/mL)) and 35 μL of cell suspension (˜25,000 cells) per well were added to a flat bottom 384-well plate (white opaque). Plate was centrifuged at 300 g for 2 min, compounds were added in serial dilution series according to the plate layout (volumes ˜500 nL-0.0152 nL) and plate was incubated at 37° C. in 5% CO2 for 30 min. Using assay media, a L18-MDP stock solution, that results in a final concentration of 10 ng/mL L18-MDP in each well when adding 15 μL to each well, was prepared. 15 μL of L18-MDP stock solution was added to each well, while 15 μL of assay media was added to the negative control wells. Plates were subsequently incubated at 37° C. in 5% CO2 overnight (20-24 h).
For the SEAP assay: without disturbing the cells at the bottom of the well, 15 μL supernatant was transferred to a clear 384-well flat bottom plate and 35 μL QUANTI-Blue Solution per well was added. Following a 2 h incubation at 37° C., the optical density (OD) was measured at 620-655 nm using a microplate reader (PheraStar FS microplate reader with protocol for OD 620-655 nm).
Values of media-only wells were subtracted and % inhibition for each compound concentration relative to the DMSO/L18-MDP-treated controls was calculated. Inhibition values+/−SD were fitted by non-linear regression using Prism software (GraphPad PRISM Software) to calculate IC50 values.

The target of another test is T1, RIPK2 (KD)/XIAP (BIR2) (Homo sapiens, UniProt O43353).
T1 construct: made in house; host or cells: baculovirus-infected Sf9 cells
T1 sequence (O43353 1-310): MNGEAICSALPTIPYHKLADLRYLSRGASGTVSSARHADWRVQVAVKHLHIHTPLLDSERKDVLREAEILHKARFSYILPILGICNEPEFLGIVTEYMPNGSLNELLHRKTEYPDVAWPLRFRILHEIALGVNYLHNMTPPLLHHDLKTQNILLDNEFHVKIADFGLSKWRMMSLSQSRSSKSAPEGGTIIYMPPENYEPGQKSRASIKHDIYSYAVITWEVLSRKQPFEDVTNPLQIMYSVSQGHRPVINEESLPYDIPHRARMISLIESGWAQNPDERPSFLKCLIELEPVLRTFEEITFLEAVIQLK
The test can be described thus: RIPK2-XIAP binding competition PPI assay (TR-FRET). The note with it: for Emax: 50 nM of GSK583 = -100% activity, read-out: PPI Amax; for IC50: GST-RIPK2 / His-XIAP (BIR2)-avi, 120 min at 23° C. The text has this:
The ability of selected compounds of Formula (I) to inhibit the binding of an His-XIAP (BIR2)-avi fusion protein to a GST-RIPK2 fusion protein was quantified employing the TR-FRET-based competition assay as described in the following paragraphs.
Recombinant fusion protein of N-terminal Glutathione-S-Transferase (GST) and a fragment of human RIPK2 (amino acids 1-310 of accession number 043353), expressed in baculovirus infected Sf9 cells, purified via glutathione affinity chromatography, was used as GST-RIPK2 fusion protein. Recombinant fusion protein of N-terminal 6xHistidine (His), a fragment of human XIAP (amino acids 152-231 of accession number P98170), and C-terminal avi tag, expressed in baculovirus infected Sf9 cells, purified via Nickel NTA affinity chromatography, was used as the His-XIAP (BIR2)-avi fusion protein.
For the assay, a working solution of 1 nM GST-RIPK2, 25 nM His-XIAP (BIR2)-avi, 6 nM Anti-His-XL665 […] (Revvity Catalogue No. 61HISXLB), and 0.5 nM Anti-GST-Tb(Revvity Catalogue No. 61GSTTLB) in 25 mM Tris-HCl 7.5, 0.5 mM ethylene glycol-bis(2-aminoethylether)-N,N,N′,N′-tetraacetic acid (EGTA), 10 mM magnesium chloride (MgCl2), 2.5 mM dithiothreitol (DTT), 0.01% (w/v) bovine serum albumin (BSA), 0.005% (w/v) Pluronic F-127 (Sigma), 0.5 mM sodium ortho-vanadate, 5 mM-Glycerophosphate disodium salt hydrate (BGP) was prepared. 50 nL of a 100-fold concentrated solution of each test compound in DMSO was dispensed via acoustic dispensing into a white low volume 384-well microtiter plate (Perkin Elmer Catalogue No. 6008280). Subsequently, 5 μL of the assay working solution were added.
The resulting mixture was incubated 120 min at 23° C. Subsequently, the amount of complex formed by the GST-RIPK2, XIAP (BIR2)-avi, Anti-His-XL665, and Anti-GST-Tb was evaluated by measurement of the resonance energy transfer from the Tb-cryptate to the XL665. Therefore, the fluorescence emissions at 520 nm and 665 nm after excitation at 337 nm were measured in a TR-FRET reader, e.g. a Pherastar FS(BMG Labtechnologies, Offenburg, Germany) or an Envision (PerkinElmer). The ratio of the emissions at 665 nm and at 520 nm was taken as the measure of the amount of the complex. The data were normalized (assay reaction without inhibitor=0% activity, 50 nM of GSK583=−100% activity).

Turning to `COc1cc2ncc(-c3cc(C(=O)N[C@@H](C)C4CC4)n(C)n3)n2cc1S(=O)(=O)C(C)(C)C` [Example 36, (S)-3-(6-(tert-butylsulfonyl)-7-methoxyimidazo[1,2-a]pyridin-3-yl)-N-(1-cyclopropylethyl)-1-methyl-1H-pyrazole-5-carboxamide], in test [1], the IC50 was more than 2500 nM. Also, on RIPK2 (KD)/XIAP (BIR2), the Emax was 30 to 55% and the IC50 is more than 1000 nM.
For `COc1cc2ncc(-c3cc(C(=O)NC(C)C)n(C)n3)n2cc1S(=O)(=O)C(C)(C)C` [Example 37, 3-(6-(tert-butylsulfonyl)-7-methoxyimidazo[1,2-a]pyridin-3-yl)-N-isopropyl-1-methyl-1H-pyrazole-5-carboxamide], the IC50 in test [1] was more than 2500 nM. Also, at RIPK2 (KD)/XIAP (BIR2), the Emax is 30 to 55% and the concentration for half-maximal inhibition (IC50) is more than 1000 nM.
For `COc1cc2ncc(-c3cc(C(=O)NCC4CC4)n(C)n3)n2cc1S(=O)(=O)C(C)(C)C` [Example 38, 3-(6-(tert-butylsulfonyl)-7-methoxyimidazo[1,2-a]pyridin-3-yl)-N-(cyclopropylmethyl)-1-methyl-1H-pyrazole-5-carboxamide] the same measures were more than 2500 nM, 30 to 55% and more than 1000 nM.
Turning to `COc1cc2ncc(-c3cc(C(=O)NCC4CCC4)n(C)n3)n2cc1S(=O)(=O)C(C)(C)C` [Example 39, 3-(6-(tert-butylsulfonyl)-7-methoxyimidazo[1,2-a]pyridin-3-yl)-N-(cyclobutylmethyl)-1-methyl-1H-pyrazole-5-carboxamide], the figures for the IC50 (in test [1]; on RIPK2 (KD)/XIAP (BIR2)) were more than 2500 nM and 100 to 1000 nM, respectively. The Emax on RIPK2 (KD)/XIAP (BIR2) is not below 80%.
For `COc1cc2ncc(-c3cc(C(=O)NCC4CCCC4)n(C)n3)n2cc1S(=O)(=O)C(C)(C)C` [Example 40, 3-(6-(tert-butylsulfonyl)-7-methoxyimidazo[1,2-a]pyridin-3-yl)-N-(cyclopentylmethyl)-1-methyl-1H-pyrazole-5-carboxamide] the same measures were more than 2500 nM, 100 to 1000 nM and not below 80%.
Take `COc1cc2ncc(-c3cc(C(=O)NCC4CCCCC4)n(C)n3)n2cc1S(=O)(=O)C(C)(C)C` [Example 41, 3-(6-(tert-butylsulfonyl)-7-methoxyimidazo[1,2-a]pyridin-3-yl)-N-(cyclohexylmethyl)-1-methyl-1H-pyrazole-5-carboxamide]: in test [1], the IC50 is more than 2500 nM. Also, on RIPK2 (KD)/XIAP (BIR2), the Emax was not below 80% and the IC50 is 100 to 1000 nM.
For `COc1cc2ncc(-c3cc(C(=O)N[C@H](C)c4ccccn4)n(C)n3)n2cc1S(=O)(=O)C(C)(C)C` [Example 42, (R)-3-(6-(tert-butylsulfonyl)-7-methoxyimidazo[1,2-a]pyridin-3-yl)-1-methyl-N-(1-(pyridin-2-yl)ethyl)-1H-pyrazole-5-carboxamide] the same measures were 100 to 500 nM, not below 80% and 10 to 100 nM.
With `COc1cc2ncc(-c3cc(C(=O)NCc4[nH]ncc4C)n(C)n3)n2cc1S(=O)(=O)C(C)(C)C` [Example 43, 3-(6-(tert-butylsulfonyl)-7-methoxyimidazo[1,2-a]pyridin-3-yl)-1-methyl-N-((4-methyl-1H-pyrazol-5-yl)methyl)-1H-pyrazole-5-carboxamide], in test [1], the IC50 is more than 2500 nM. On RIPK2 (KD)/XIAP (BIR2), the Emax is not below 80% and the half-inhibitory concentration (IC50) lay in the range of 100 to 1000 nM.
For `COc1cc2ncc(-c3cc(C(=O)NCc4cn(C)cn4)n(C)n3)n2cc1S(=O)(=O)C(C)(C)C` [Example 44, 3-(6-(tert-butylsulfonyl)-7-methoxyimidazo[1,2-a]pyridin-3-yl)-1-methyl-N-((1-methyl-1H-imidazol-4-yl)methyl)-1H-pyrazole-5-carboxamide], the IC50 in test [1] is more than 2500 nM; on RIPK2 (KD)/XIAP (BIR2) it was 100 to 1000 nM. Besides, at RIPK2 (KD)/XIAP (BIR2), the Emax is not below 80%.
For `COc1cc2ncc(-c3cc(C(=O)NCc4cc(C)n[nH]4)n(C)n3)n2cc1S(=O)(=O)C(C)(C)C` [Example 45, 3-(6-(tert-butylsulfonyl)-7-methoxyimidazo[1,2-a]pyridin-3-yl)-1-methyl-N-((3-methyl-1H-pyrazol-5-yl)methyl)-1H-pyrazole-5-carboxamide] the same measures were more than 2500 nM, 10 to 100 nM and not below 80%.
For `COc1cc2ncc(-c3cc(C(=O)NCc4ccc(F)cn4)n(C)n3)n2cc1S(=O)(=O)C(C)(C)C` [Example 46, 3-(6-(tert-butylsulfonyl)-7-methoxyimidazo[1,2-a]pyridin-3-yl)-N-((5-fluoropyridin-2-yl)methyl)-1-methyl-1H-pyrazole-5-carboxamide] the same measures were more than 2500 nM, 100 to 1000 nM and not below 80%.
The like results for `COc1cc2ncc(-c3cc(C(=O)N[C@H](C)c4ccccn4)n(C)n3)n2cc1C1(F)CCN(C)CC1` [Example 47, (R)-3-(6-(4-fluoro-1-methylpiperidin-4-yl)-7-methoxyimidazo[1,2-a]pyridin-3-yl)-1-methyl-N-(1-(pyridin-2-yl)ethyl)-1H-pyrazole-5-carboxamide] were, in that order, 500 to 2500 nM, 10 to 100 nM and not below 80%.
For `COc1cc2ncc(-c3cc(C(=O)N[C@H](C)c4ccc(F)cn4)n(C)n3)n2cc1S(=O)(=O)C(C)(C)C` [Example 48, (R)-3-(6-(tert-butylsulfonyl)-7-methoxyimidazo[1,2-a]pyridin-3-yl)-N-(1-(5-fluoropyridin-2-yl)ethyl)-1-methyl-1H-pyrazole-5-carboxamide], the IC50 in test [1] lay in the range of 500 to 2500 nM; on RIPK2 (KD)/XIAP (BIR2), 10 to 100 nM. In addition, at RIPK2 (KD)/XIAP (BIR2), the Emax is not below 80%.
With `COc1cc2ncc(-c3cc(C(=O)NCc4ncccc4F)n(C)n3)n2cc1S(=O)(=O)C(C)(C)C` [Example 49, 3-(6-(tert-butylsulfonyl)-7-methoxyimidazo[1,2-a]pyridin-3-yl)-N-((3-fluoropyridin-2-yl)methyl)-1-methyl-1H-pyrazole-5-carboxamide], the half-inhibitory concentration (IC50) in test [1] fell in the range of 500 to 2500 nM; at RIPK2 (KD)/XIAP (BIR2) it was 10 to 100 nM. Besides, the Emax on RIPK2 (KD)/XIAP (BIR2) was not below 80%.
For `COc1cc2ncc(-c3cc(C(=O)N[C@H](C)c4ncccc4F)n(C)n3)n2cc1S(=O)(=O)C(C)(C)C` [Example 50, (R)-3-(6-(tert-butylsulfonyl)-7-methoxyimidazo[1,2-a]pyridin-3-yl)-N-(1-(3-fluoropyridin-2-yl)ethyl)-1-methyl-1H-pyrazole-5-carboxamide], in test [1], the concentration for half-maximal inhibition (IC50) was 100 to 500 nM. At RIPK2 (KD)/XIAP (BIR2), the Emax was not below 80% and the half-inhibitory concentration (IC50) was in the range of 10 to 100 nM.
Consider `COc1cc2ncc(-c3cc(C(=O)N[C@@H](C)c4ncccc4F)n(C)n3)n2cc1S(=O)(=O)C(C)(C)C` [Example 51, (S)-3-(6-(tert-butylsulfonyl)-7-methoxyimidazo[1,2-a]pyridin-3-yl)-N-(1-(3-fluoropyridin-2-yl)ethyl)-1-methyl-1H-pyrazole-5-carboxamide], for which the 50% inhibitory concentration (IC50) in test [1] was more than 2500 nM. Moreover, at RIPK2 (KD)/XIAP (BIR2), the Emax lay in the range of 55 to 80% and the IC50 is more than 1000 nM.
